Results: ChEMBL document CHEMBL1201862, “PubChem BioAssay data set” (2004)
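Cultured in 96-well plates, cells were exposed to test compound for 48 hours across five concentrations. Abbreviation: GI50, concentration required for 50% inhibition of growth.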 Activity calls are given as the source filed them. Rule as the data show it: active = GI50 up to about 1.1 µM and inactive = higher.

Tests used:
Assay in all cases: DTP human tumour cell line panel, 48 h
HCT-116 = system: HCT-116
RXF 393 = system: RXF 393
SNB-19 = system: SNB-19
HOP-62 = system: HOP-62
A549 = system: A549
CAKI-1 = system: CAKI-1
HL-60 = system: HL-60
NCI-H460 = system: NCI-H460
SNB-75 = system: SNB-75
KM12 = system: KM12
SK-MEL-5 = system: SK-MEL-5
NCI-H522 = system: NCI-H522
786-0 = system: 786-0
MCF7 = system: MCF7
OVCAR-5 = system: OVCAR-5
HCC 2998 = system: HCC 2998
OVCAR-8 = system: OVCAR-8
COLO 205 = system: COLO 205
MOLT-4 = system: MOLT-4
U-251 = system: U-251
SK-MEL-28 = system: SK-MEL-28
NCI/ADR-RES = system: NCI/ADR-RES
HT-29 = system: HT-29
Hs-578T = system: Hs-578T
UO-31 = system: UO-31
ACHN = system: ACHN
OVCAR-4 = system: OVCAR-4
PC-3 = system: PC-3
IGROV-1 = system: IGROV-1
CCRF-CEM = system: CCRF-CEM
UACC-257 = system: UACC-257
SK-OV-3 = system: SK-OV-3
A498 = system: A498
LOX IMVI = system: LOX IMVI
OVCAR-3 = system: OVCAR-3
HCT-15 = system: HCT-15
SF-295 = system: SF-295
SK-MEL-2 = system: SK-MEL-2
T47D = system: T47D
M14 = system: M14
EKVX = system: EKVX
SF-539 = system: SF-539
SN12C = system: SN12C
NCI-H226 = system: NCI-H226
K562 = system: K562
TK-10 = system: TK-10
MDA-MB-231 = system: MDA-MB-231
SW-620 = system: SW-620
SF-268 = system: SF-268
NCI-H23 = system: NCI-H23
Malme-3M = system: Malme-3M
MDA-N = system: MDA-N
RPMI-8226 = system: RPMI-8226
BT-549 = system: BT-549
MDA-MB-435 = system: MDA-MB-435
HOP-92 = system: HOP-92
UACC-62 = system: UACC-62
SR = system: SR
DU-145 = system: DU-145
M19-MEL = system: M19-MEL
DLD-1 = system: DLD-1
KM-20L2 = system: KM-20L2

CC1=NN2C(=N)/C(=C/c3ccc(F)cc3)C(=O)N=C2S1 was tested, and the GI50 (HCT-116) was > 100 µM (inactive), the GI50 (RXF 393) was > 100 µM (inactive) and the GI50 (SNB-19) was > 100 µM (inactive). The GI50 (HOP-62) was > 100 µM (inactive), the GI50 (A549) was > 100 µM (inactive) and the GI50 (CAKI-1) was > 100 µM (inactive). For the same compound, the GI50 (HL-60) was > 100 µM (inactive), the GI50 (NCI-H460) was > 100 µM (inactive) and the GI50 (SNB-75) was > 100 µM (inactive). For the same compound, the GI50 (KM12) was > 100 µM (inactive), the GI50 (SK-MEL-5) was > 100 µM (inactive) and the GI50 (NCI-H522) was > 100 µM (inactive). For the same compound, the GI50 (786-0) was > 100 µM (inactive), the GI50 (MCF7) was > 100 µM (inactive) and the GI50 (OVCAR-5) was > 100 µM (inactive). The GI50 (HCC 2998) was 44.4 µM (inactive), the GI50 (OVCAR-8) was > 100 µM (inactive) and the GI50 (COLO 205) was > 100 µM (inactive). For the same compound, the GI50 (MOLT-4) was > 100 µM (inactive), the GI50 (U-251) was > 100 µM (inactive) and the GI50 (SK-MEL-28) was > 100 µM (inactive). The GI50 (NCI/ADR-RES) was 13 µM (inactive), the GI50 (HT-29) was > 100 µM (inactive) and the GI50 (Hs-578T) was > 100 µM (inactive). For the same compound, the GI50 (UO-31) was > 100 µM (inactive), the GI50 (ACHN) was > 100 µM (inactive) and the GI50 (OVCAR-4) was > 100 µM (inactive). For the same compound, the GI50 (PC-3) was > 100 µM (inactive), the GI50 (IGROV-1) was > 100 µM (inactive) and the GI50 (CCRF-CEM) was > 100 µM (inactive). The GI50 (UACC-257) was > 100 µM (inactive), the GI50 (SK-OV-3) was > 100 µM (inactive) and the GI50 (A498) was > 100 µM (inactive). The GI50 (LOX IMVI) was > 100 µM (inactive), the GI50 (OVCAR-3) was > 100 µM (inactive) and the GI50 (HCT-15) was greater than 100 µM. The GI50 (SF-295) was > 100 µM (inactive), the GI50 (SK-MEL-2) was > 100 µM (inactive) and the GI50 (T47D) was > 100 µM (inactive). For the same compound, the GI50 (M14) was > 100 µM (inactive), the GI50 (EKVX) was > 100 µM (inactive) and the GI50 (SF-539) was > 100 µM (inactive). For the same compound, the GI50 (SN12C) was > 100 µM (inactive), the GI50 (NCI-H226) was > 100 µM (inactive) and the GI50 (K562) was > 100 µM (inactive). For the same compound, the GI50 (TK-10) was > 100 µM (inactive), the GI50 (MDA-MB-231) was > 100 µM (inactive) and the GI50 (SW-620) was > 100 µM (inactive). The GI50 (SF-268) was > 100 µM (inactive), the GI50 (NCI-H23) was > 100 µM (inactive) and the GI50 (Malme-3M) was > 100 µM (inactive). The GI50 (MDA-N) was > 100 µM (inactive), the GI50 (RPMI-8226) was > 100 µM (inactive) and the GI50 (BT-549) was > 100 µM (inactive). The GI50 (MDA-MB-435) was > 100 µM (inactive), the GI50 (HOP-92) was 47.9 µM (inactive) and the GI50 (UACC-62) was > 100 µM (inactive). For the same compound, the GI50 (SR) was 69.8 µM (inactive) and the GI50 (DU-145) was > 100 µM (inactive).
With C/C(=N\NC(=O)c1cccnc1)c1cccc(/C(C)=N/NC(=O)c2cccnc2)n1 the GI50 (SNB-19) was 3.56 µM (inactive), the GI50 (A549) was 2.99 µM (inactive) and the GI50 (NCI-H460) was 3.41 µM (inactive). The GI50 (M19-MEL) was 13.2 µM (inactive), the GI50 (KM12) was 4.85 µM (inactive) and the GI50 (OVCAR-5) was 2.08 µM (inactive). For the same compound, the GI50 (OVCAR-8) was 2.43 µM (inactive), the GI50 (U-251) was 2.06 µM (inactive) and the GI50 (UO-31) was 3.81 µM (inactive). For the same compound, the GI50 (DLD-1) was 1.95 µM (inactive), the GI50 (ACHN) was 1.48 µM (inactive) and the GI50 (UACC-257) was 3.06 µM (inactive). The GI50 (SK-OV-3) was 4.14 µM (inactive), the GI50 (LOX IMVI) was 2 µM (inactive) and the GI50 (HCT-15) was 3.99 µM. The GI50 (SF-295) was 4.15 µM (inactive), the GI50 (M14) was 2.85 µM (inactive) and the GI50 (EKVX) was 3.42 µM (inactive). The GI50 (SF-539) was 2.36 µM (inactive), the GI50 (SN12C) was 4.81 µM (inactive) and the GI50 (TK-10) was 4.67 µM (inactive). For the same compound, the GI50 (SW-620) was 2.78 µM (inactive), the GI50 (SF-268) was 0.867 µM (active) and the GI50 (NCI-H23) was 7.4 µM (inactive). For the same compound, the GI50 (KM-20L2) was 2.21 µM (inactive) and the GI50 (UACC-62) was 2.04 µM (inactive).
With COc1cc2c(cc1O)CC1c3c(cc(O)c(OC)c3-2)CCN1C (centres undefined) the GI50 (HCT-116) was > 78 µM (inactive), the GI50 (RXF 393) was > 100 µM (inactive) and the GI50 (SNB-19) was > 100 µM (inactive). The GI50 (HOP-62) was > 100 µM (inactive), the GI50 (A549) was > 100 µM (inactive) and the GI50 (CAKI-1) was > 100 µM (inactive). The GI50 (HL-60) was 91.4 µM (inactive), the GI50 (NCI-H460) was > 100 µM (inactive) and the GI50 (SNB-75) was 81.1 µM (inactive). The GI50 (KM12) was > 100 µM (inactive), the GI50 (SK-MEL-5) was > 89.7 µM (inactive) and the GI50 (NCI-H522) was 56.4 µM (inactive). For the same compound, the GI50 (786-0) was > 100 µM (inactive), the GI50 (MCF7) was > 100 µM (inactive) and the GI50 (OVCAR-5) was > 100 µM (inactive). For the same compound, the GI50 (HCC 2998) was > 100 µM (inactive), the GI50 (OVCAR-8) was > 100 µM (inactive) and the GI50 (COLO 205) was > 73.5 µM (inactive). For the same compound, the GI50 (MOLT-4) was > 58.3 µM (inactive), the GI50 (U-251) was > 86.1 µM (inactive) and the GI50 (SK-MEL-28) was > 100 µM (inactive). The GI50 (NCI/ADR-RES) was > 100 µM (inactive), the GI50 (HT-29) was 62.2 µM (inactive) and the GI50 (Hs-578T) was > 100 µM (inactive). The GI50 (UO-31) was > 100 µM (inactive), the GI50 (ACHN) was > 100 µM (inactive) and the GI50 (OVCAR-4) was > 100 µM (inactive). For the same compound, the GI50 (PC-3) was > 96.6 µM (inactive), the GI50 (IGROV-1) was > 100 µM (inactive) and the GI50 (CCRF-CEM) was > 100 µM (inactive). For the same compound, the GI50 (UACC-257) was > 100 µM (inactive), the GI50 (SK-OV-3) was > 100 µM (inactive) and the GI50 (A498) was > 100 µM (inactive). The GI50 (LOX IMVI) was > 100 µM (inactive), the GI50 (OVCAR-3) was 98.9 µM (inactive) and the GI50 (HCT-15) was greater than 100 µM. The GI50 (SF-295) was > 100 µM (inactive), the GI50 (SK-MEL-2) was > 100 µM (inactive) and the GI50 (T47D) was > 100 µM (inactive). The GI50 (M14) was > 100 µM (inactive), the GI50 (EKVX) was > 100 µM (inactive) and the GI50 (SF-539) was > 39.9 µM (inactive). For the same compound, the GI50 (SN12C) was > 100 µM (inactive), the GI50 (NCI-H226) was 69.7 µM (inactive) and the GI50 (K562) was > 100 µM (inactive). The GI50 (TK-10) was > 100 µM (inactive), the GI50 (MDA-MB-231) was > 100 µM (inactive) and the GI50 (SW-620) was > 100 µM (inactive). The GI50 (SF-268) was > 100 µM (inactive), the GI50 (NCI-H23) was > 100 µM (inactive) and the GI50 (Malme-3M) was > 100 µM (inactive). The GI50 (MDA-N) was > 100 µM (inactive), the GI50 (RPMI-8226) was > 100 µM (inactive) and the GI50 (BT-549) was > 100 µM (inactive). For the same compound, the GI50 (MDA-MB-435) was > 100 µM (inactive), the GI50 (HOP-92) was > 78.3 µM (inactive) and the GI50 (UACC-62) was > 100 µM (inactive). The GI50 (SR) was > 59.7 µM (inactive) and the GI50 (DU-145) was > 100 µM (inactive).
